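How tested: cells in 96-well plates exposed to compound for 48 hours at five concentrations. The concentration for full growth arrest is given as TGI.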
Assays:
Experiment in all cases: NCI-60 cell line screen, 48 h
[1] = tested on: HCT-15 colon
[2] = tested on: HCC-2998 colon
[3] = tested on: NCI-H23 lung
[4] = tested on: DU-145 prostate
[5] = tested on: SNB-19 CNS
[6] = tested on: SK-MEL-28 melanoma
[7] = tested on: HCT-116 colon
[8] = tested on: NCI-H522 lung
[9] = tested on: SK-MEL-5 melanoma
[10] = tested on: LOX IMVI melanoma
[11] = tested on: ACHN renal
[12] = tested on: SW-620 colon
[13] = tested on: U251 CNS
[14] = tested on: M14 melanoma
[15] = tested on: UACC-62 melanoma
[16] = tested on: SF-539 CNS
[17] = tested on: BT-549 breast
[18] = tested on: KM12 colon
[19] = tested on: SF-295 CNS
[20] = tested on: MDA-N
[21] = tested on: RXF 393 renal
[22] = tested on: T-47D breast
[23] = tested on: OVCAR-8 ovarian
[24] = tested on: HT29 colon
[25] = tested on: RPMI-8226 leukemia
[26] = tested on: UO-31 renal
[27] = tested on: SR leukemia
[28] = tested on: IGROV1 ovarian
[29] = tested on: SK-MEL-2 melanoma
[30] = tested on: COLO 205 colon
[31] = tested on: SF-268 CNS
[32] = tested on: MDA-MB-435
[33] = tested on: A549 NSCLC
[34] = tested on: HL-60(TB) leukemia
[35] = tested on: OVCAR-3 ovarian
[36] = tested on: HS 578T breast
[37] = tested on: K-562 leukemia
[38] = tested on: HOP-62 NSCLC
[39] = tested on: MCF7 breast
[40] = tested on: SNB-75 CNS
[41] = tested on: MDA-MB-231 breast
[42] = tested on: 786-0 renal
[43] = tested on: OVCAR-4 ovarian
[44] = tested on: HOP-92 NSCLC
[45] = tested on: NCI-H226 lung
[46] = tested on: CCRF-CEM leukemia
[47] = tested on: NCI-H460 lung
[48] = tested on: SN12C renal
[49] = tested on: MALME-3M melanoma
[50] = tested on: MOLT-4 leukemia
[51] = tested on: TK-10 renal
[52] = tested on: PC-3 prostate
[53] = tested on: NCI/ADR-RES ovarian
[54] = tested on: SK-OV-3 ovarian
[55] = tested on: EKVX NSCLC
[56] = tested on: A498 renal
[57] = tested on: OVCAR-5 ovarian
[58] = tested on: CAKI-1 renal

Work on `CCCCCCCCCCCCCCCCOCC(COP(=O)([O-])OCC[n+]1ccc(N(C)C)cc1)OCC` (stereo not given) yielded a TGI [1] of 32.5 µM, a TGI [2] of 27.6 µM and a TGI [3] of 35.9 µM. It also gave a TGI [4] of 30.1 µM, a TGI [5] of 14.4 µM and a TGI [6] of 32.4 µM. The TGI [7] was 24.5 µM, the TGI [8] was 29.2 µM and the TGI [9] was 31.6 µM. For the same molecule, the TGI [10] was 25.5 µM, the TGI [11] was 30.9 µM and the TGI [12] was 37.2 µM. It also gave a TGI [13] of 25.6 µM, a TGI [14] of 26.7 µM and a TGI [15] of 29 µM. For the same molecule, the TGI [16] was 26.3 µM, the TGI [17] was 20.2 µM and the TGI [18] was 3.86 µM. The TGI [19] was 30.2 µM, the TGI [20] was 30.8 µM and the TGI [21] was 31.7 µM. The TGI [22] was 37.3 µM, the TGI [23] was 38.2 µM and the TGI [24] was 28 µM. The TGI [25] was 17.1 µM, the TGI [26] was 29.4 µM and the TGI [27] was 23.9 µM. It also gave a TGI [28] of 33.8 µM, a TGI [29] of 27 µM and a TGI [30] of 26.5 µM. For the same molecule, the TGI [31] was 25.7 µM, the TGI [32] was 31.6 µM and the TGI [33] was 30.4 µM. For the same molecule, the TGI [34] was 3.79 µM, the TGI [35] was 24.8 µM and the TGI [36] was 31.8 µM. The TGI [37] was 36.6 µM, the TGI [38] was 26.3 µM and the TGI [39] was 36.1 µM. For the same molecule, the TGI [40] was 18.8 µM, the TGI [41] was 22.5 µM and the TGI [42] was 34.2 µM. For the same molecule, the TGI [43] was 29.3 µM, the TGI [44] was 32.6 µM and the TGI [45] was 33.7 µM. For the same molecule, the TGI [46] was 24.9 µM, the TGI [47] was 25.4 µM and the TGI [48] was 34.6 µM. The TGI [49] was 33 µM, the TGI [50] was 18.4 µM and the TGI [51] was 28.9 µM.

Work on `Cc1ccc(C(CC(=O)C(C)(C)CN2CCCCC2)SCCS(=O)(=O)O)cc1` (stereo not given) yielded a TGI [1] of 72 µM, a TGI [2] of 83.3 µM and a TGI [3] of 86.5 µM. It also gave a TGI [4] greater than 100 µM, a TGI [5] greater than 100 µM and a TGI [7] of 59.2 µM. It also gave a TGI [8] of 51.2 µM, a TGI [9] of 46.5 µM and a TGI [52] greater than 100 µM. It also gave a TGI [53] of 84.9 µM, a TGI [11] of 70.8 µM and a TGI [12] of 62.8 µM. The TGI [13] was 81.8 µM, the TGI [14] was 50.1 µM and the TGI [15] was 46.8 µM. It also gave a TGI [16] of 49.1 µM, a TGI [17] greater than 100 µM and a TGI [18] greater than 100 µM. It also gave a TGI [19] of 73.4 µM, a TGI [20] greater than 100 µM and a TGI [21] of 57.1 µM. The TGI [23] was 65.4 µM, the TGI [54] was 91 µM and the TGI [24] was 72.8 µM. For the same molecule, the TGI [25] was 48.1 µM, the TGI [26] was 65.3 µM and the TGI [27] was 45.3 µM. For the same molecule, the TGI [28] was greater than 100 µM, the TGI [29] was 40.1 µM and the TGI [30] was 35.3 µM. It also gave a TGI [31] greater than 100 µM, a TGI [55] of 66.5 µM and a TGI [32] of 57.7 µM. The TGI [33] was greater than 100 µM, the TGI [35] was 49.5 µM and the TGI [56] was 48.7 µM. It also gave a TGI [36] of 68.9 µM, a TGI [37] of 51.4 µM and a TGI [38] of 78.8 µM. It also gave a TGI [39] of 83.8 µM, a TGI [40] of 96.4 µM and a TGI [41] greater than 100 µM. For the same molecule, the TGI [42] was 59.9 µM, the TGI [43] was 84.3 µM and the TGI [57] was greater than 100 µM. It also gave a TGI [44] of 42.3 µM, a TGI [45] of 70.5 µM and a TGI [46] of 45.9 µM. For the same molecule, the TGI [58] was 51 µM, the TGI [47] was greater than 100 µM and the TGI [48] was 94.8 µM. For the same molecule, the TGI [49] was 73.2 µM, the TGI [50] was 48.7 µM and the TGI [51] was 86 µM.

Reference: PubChem BioAssay (NCI)
